System: P12-Ichikawa
Test: cell viability relative to DMSO control; higher = less cytotoxic
Conditions: 48 h
Procedure, shortened: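 Three leukemia lines were tested: NOMO1 and SEM at 500 cells/well and P12-Ichikawa at 1000 cells/well. Each was adapted for at least four passages in each medium and seeded in 5 μl in 1536-well plates, and library compounds in DMSO were pin-dosed from 47 μM to 0.79 nM in 11 threefold steps. After 48 h at 37°C, CellTiter-Glo One luminescence was read. Viability is a percentage relative to DMSO wells on each plate, with cell-free wells as background.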

[1] = HPLM + 10% dialyzed FBS, 0.000781 µM
[2] = HPLM + 10% dialyzed FBS, 0.00234 µM
[3] = HPLM + 10% dialyzed FBS, 0.00702 µM
[4] = HPLM + 10% dialyzed FBS, 0.0211 µM
[5] = HPLM + 10% dialyzed FBS, 0.0632 µM
[6] = HPLM + 10% dialyzed FBS, 0.19 µM
[7] = HPLM + 10% dialyzed FBS, 0.569 µM
[8] = HPLM + 10% dialyzed FBS, 1.71 µM
[9] = HPLM + 10% dialyzed FBS, 5.12 µM
[10] = HPLM + 10% dialyzed FBS, 15.4 µM
[11] = HPLM + 10% dialyzed FBS, 46.1 µM
[12] = RPMI 5 mM glucose + 10% FBS, 0.000781 µM
[13] = RPMI 5 mM glucose + 10% FBS, 0.00234 µM
[14] = RPMI 5 mM glucose + 10% FBS, 0.00702 µM
[15] = RPMI 5 mM glucose + 10% FBS, 0.0211 µM
[16] = RPMI 5 mM glucose + 10% FBS, 0.0632 µM
[17] = RPMI 5 mM glucose + 10% FBS, 0.19 µM
[18] = RPMI 5 mM glucose + 10% FBS, 0.569 µM
[19] = RPMI 5 mM glucose + 10% FBS, 1.71 µM
[20] = RPMI 5 mM glucose + 10% FBS, 5.12 µM
[21] = RPMI 5 mM glucose + 10% FBS, 15.4 µM
[22] = RPMI 5 mM glucose + 10% FBS, 46.1 µM
[23] = RPMI 5 mM glucose + 10% dialyzed FBS, 0.000781 µM
[24] = RPMI 5 mM glucose + 10% dialyzed FBS, 0.00234 µM
[25] = RPMI 5 mM glucose + 10% dialyzed FBS, 0.00702 µM
[26] = RPMI 5 mM glucose + 10% dialyzed FBS, 0.0211 µM
[27] = RPMI 5 mM glucose + 10% dialyzed FBS, 0.0632 µM
[28] = RPMI 5 mM glucose + 10% dialyzed FBS, 0.19 µM
[29] = RPMI 5 mM glucose + 10% dialyzed FBS, 0.569 µM
[30] = RPMI 5 mM glucose + 10% dialyzed FBS, 1.71 µM
[31] = RPMI 5 mM glucose + 10% dialyzed FBS, 5.12 µM
[32] = RPMI 5 mM glucose + 10% dialyzed FBS, 15.4 µM
[33] = RPMI 5 mM glucose + 10% dialyzed FBS, 46.1 µM

Compound	cell viability [1] [%]	cell viability [2] [%]	cell viability [3] [%]	cell viability [4] [%]	cell viability [5] [%]	cell viability [6] [%]	cell viability [7] [%]	cell viability [8] [%]	cell viability [9] [%]	cell viability [10] [%]	cell viability [11] [%]	cell viability [12] [%]	cell viability [13] [%]	cell viability [14] [%]	cell viability [15] [%]	cell viability [16] [%]	cell viability [17] [%]	cell viability [18] [%]	cell viability [19] [%]	cell viability [20] [%]	cell viability [21] [%]	cell viability [22] [%]	cell viability [23] [%]	cell viability [24] [%]	cell viability [25] [%]	cell viability [26] [%]	cell viability [27] [%]	cell viability [28] [%]	cell viability [29] [%]	cell viability [30] [%]	cell viability [31] [%]	cell viability [32] [%]	cell viability [33] [%]
C[C@H](Cc1ccc(O)c(O)c1)[C@@H](C)Cc1ccc(O)c(O)c1	115	114	120	122	118	116	117	116	114	87.5	18.1	125	130	123	128	130	126	118	125	115	75.9	16.3	124	121	119	118	124	120	109	114	115	70.9	20.6
NNc1nncc2ccccc12	112	121	127	122	126	131	121	134	129	124	130																						
Oc1ccc(-c2ccc(-c3cc(Nc4cccc(CNC5CC5)c4)[nH]n3)cc2)c(O)c1	104	103	112	104	96.1	112	104	92.3	32.2	38	64.1	99.4	98.1	115	114	98.5	116	108	89	23.2	13.5	23.4	101	114	105	125	111	112	104	101	58.8	32.9	43.2
Cc1ccc(-c2cc(C(F)(F)F)nn2-c2ccc([S+](N)(=O)[O-])cc2)cc1	86.8	125	118	118	120	110	128	117	115	112	105												111	119	122	113	115	123	123	122	121	105	102
O=C(NCc1ccccc1)c1csc(Nc2ccncn2)n1	91	95.5	100	110	105	108	103	85.2	62.9	5.82	1.69	94	96.1	92.9	104	106	94.5	104	63.7	37.6	5.79	2.56	93.4	101	104	112	106	97.2	102	80.6	36	6.99	2.78
COc1ccc(C2(C#N)CCC(C(=O)O)CC2)cc1OC1CCCC1 (centres undefined)	96.2	105	108	108	104	107	103	99.2	105	108	109	94.8	97.6	96.6	95.2	96.8	101	106	103	97.9	103	96.2	91.5	95.6	92.8	93.4	101	102	100	108	94.3	100	87.9
CCCCc1nc2cc(/C=C/C(=O)NO)ccc2n1CCN(CC)CC	93	98.5	103	95.9	95.7	104	90.1	83.7	3.65	2.43	4.19	86.9	96.3	96.2	83.5	101	91.3	95.7	85.7	12.3	2.22	3.51	95.7	95.6	93.5	90.4	100	101	98.6	79.5	17.6	1.97	3.51
Cc1nc(N)ncc1-c1nc(N2CCOCC2)c2sc(C(C)(C)O)cc2n1	125	122	119	113	83	10.9	7.79	5.43	4.61	4.97	4.1	116	122	114	120	116	121	18.5	7.92	6.16	5.72	5.39	124	118	125	120	122	118	13.2	8.68	7.11	6.92	5.85
Clc1ccccc1C(c1ccccc1)(c1ccccc1)n1ccnc1	108	114	107	115	108	110	107	96.7	100	91.7	74.8												103	114	112	108	106	110	103	102	88.6	93.8	58.5
CS[C@H]1SC[C@@H]2C(=O)N(C)[C@H](C(C)C)C(=O)OC[C@H](NC(=O)c3cnc4ccccc4n3)C(=O)N[C@H](C)C(=O)N(C)[C@H]1C(=O)N(C)[C@H](C(C)C)C(=O)OC[C@H](NC(=O)c1cnc3ccccc3n1)C(=O)N[C@H](C)C(=O)N2C	93.5	97.9	97.7	59	6.91	9.39	11.9	11.9	9.92	9.92	13.2	88	98.9	74.9	44.9	6.52	7.51	8.83	9.76	7.33	7.34	6.52	88.5	91.2	68.6	29.6	6.86	8.69	9.15	9.6	8.79	11.4	11.8
C[C@@H](N)C1CC[C@@H](CC1)C(=O)NC2=CC=NC=C2 (some centres undefined)	109	112	111	115	112	113	123	116	125	116	104	117	109	115	125	118	127	121	114	118	109	112	110	121	119	122	121	130	124	134	120	121	118
CCOC(=O)[C@@H](N)CCC(=O)N[C@@H](CSCc1ccccc1)C(=O)N[C@@H](C(=O)OCC)c1ccccc1	109	124	128	126	131	131	129	132	139	140	123																						
CC(C)(C)C1=CC(=C(NC(=O)C/2=C/NC3=C(C=CC=C3)C2=O)C=C1O)C(C)(C)C	123	113	124	120	121	124	120	118	118	114	112	124	139	124	133	119	124	131	115	117	116	112											
Oc1ccc([C@@H]2Oc3ccc(O)cc3[C@@H]3CCC[C@@H]32)cc1	86.9	90.2	94.7	93.5	92.7	95.1	94.3	90.5	87.4	40.6	12.2	88.5	82.6	92.7	88.7	90	87	85.5	85.4	82.3	34.1	12	76.8	80.7	87.2	85.6	82.8	76.6	82.4	76.5	72.8	44.6	14.4
NCCc1ccc(O)c(O)c1																							128	124	123	126	131	123	129	121	121	124	110
N#Cc1ccc(NC(=O)Nc2ccccc2Br)c2nn[nH]c12	101	109	109	115	119	123	122	116	125	126	79.1	101	109	112	120	118	134	122	117	128	127	122	103	110	111	108	117	112	123	109	121	125	95.7
